Tests used:
[1] = biological target: JAK2 (recombinant purified GST-tagged catalytic domain) (Homo sapiens (Human), UniProt O60674); assay: Jak Biochemical HTRF Assay (JAK2); settings: [ATP] 8.5 μM
[2] = biological target: JAK1 (recombinant purified GST-tagged catalytic domain) (Homo sapiens (Human), UniProt P23458); assay: Jak Biochemical HTRF Assay (JAK1); settings: [ATP] 31.8 μM
Procedure, shortened: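 Read-out is the 665/615 nm time-resolved FRET ratio from Eu-pY20 antibody and streptavidin-Dylight 650 bound to phosphorylated biotin-peptide. Reactions ran 120 min at room temperature after ATP start. Inhibition normalized to untreated controls gave IC50 via 4-parameter fit.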

JAK1 (recombinant purified GST-tagged catalytic domain), sequence (P23458 875-1153): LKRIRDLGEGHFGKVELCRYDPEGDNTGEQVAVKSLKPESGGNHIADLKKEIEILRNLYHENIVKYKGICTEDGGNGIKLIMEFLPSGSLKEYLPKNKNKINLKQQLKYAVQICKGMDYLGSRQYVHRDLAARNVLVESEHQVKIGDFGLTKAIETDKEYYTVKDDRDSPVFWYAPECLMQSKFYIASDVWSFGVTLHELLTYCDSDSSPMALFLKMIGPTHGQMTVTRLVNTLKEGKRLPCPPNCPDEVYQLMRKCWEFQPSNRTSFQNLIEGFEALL
JAK2 (recombinant purified GST-tagged catalytic domain), sequence (O60674 849-1124): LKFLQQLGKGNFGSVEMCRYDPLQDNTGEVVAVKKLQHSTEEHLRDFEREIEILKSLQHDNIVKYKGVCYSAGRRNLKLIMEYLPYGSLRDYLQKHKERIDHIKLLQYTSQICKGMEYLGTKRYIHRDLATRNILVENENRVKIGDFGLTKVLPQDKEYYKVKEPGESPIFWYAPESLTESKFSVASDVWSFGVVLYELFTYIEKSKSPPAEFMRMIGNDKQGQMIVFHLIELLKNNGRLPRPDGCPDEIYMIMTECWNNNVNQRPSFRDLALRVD

Structure (SMILES)	IC50 [1] [nM]	IC50 [2] [nM]
CC(C)(C)N1Cc2cc(Nc3nn([C@]4(CC#N)CCOC4)c4cc[nH]c(=O)c34)ccc2S1(=O)=O (single isomer, unassigned) [Example 5-248, (R or S)-2-(3-(3-((2-(tert-butyl)-1,1-dioxido-2,3-dihydrobenzo[d]isothiazol-5-yl)amino)-4-oxo-4,5-dihydro-1H-pyrazolo[4,3-c]pyridin-1-yl)tetrahydrofuran-3-yl)acetonitrile]	9.56	0.39
CC(C)(C)S(=O)(=O)c1ccc(Nc2nn([C@@]3(CC#N)CCOC3)c3cc[nH]c(=O)c23)cc1 (single isomer, unassigned) [Example 5-249, (S or R)-2-(3-(3-((4-(tert-butylsulfonyl)phenyl)amino)-4-oxo-4,5-dihydro-1H-pyrazolo[4,3-c]pyridin-1-yl)tetrahydrofuran-3-yl)acetonitrile]	2.43	1.13
CC(C)(C)S(=O)(=O)c1ccc(Nc2nn([C@]3(CC#N)CCOC3)c3cc[nH]c(=O)c23)cc1 (single isomer, unassigned) [Example 5-250, (R or S)-2-(3-(3-((4-(tert-butylsulfonyl)phenyl)amino)-4-oxo-4,5-dihydro-1H-pyrazolo[4,3-c]pyridin-1-yl)tetrahydrofuran-3-yl)acetonitrile]	12.1	4.34
CC(C)(C)N1Cc2cc(Nc3nn([C@@]4(CC#N)CCOC[C@H]4F)c4cc[nH]c(=O)c34)ccc2S1(=O)=O (single isomer, unassigned) [Example 5-255, 2-((3S,4S or 3R,4R)-4-(3-((2-(tert-butyl)-1,1-dioxido-2,3-dihydrobenzo[d]isothiazol-5-yl)amino)-4-oxo-4,5-dihydro-1H-pyrazolo[4,3-c]pyridin-1-yl)-3-fluorotetrahydro-2H-pyran-4-yl)acetonitrile]	3.32	0.14
CC(C)(C)N1Cc2cc(Nc3nn([C@]4(CC#N)CCOC[C@@H]4F)c4cc[nH]c(=O)c34)ccc2S1(=O)=O (single isomer, unassigned) [Example 5-256, 2-((3R,4R or 3S,4S)-4-(3-((2-(tert-butyl)-1,1-dioxido-2,3-dihydrobenzo[d]isothiazol-5-yl)amino)-4-oxo-4,5-dihydro-1H-pyrazolo[4,3-c]pyridin-1-yl)-3-fluorotetrahydro-2H-pyran-4-yl)acetonitrile]	0.06	0.04
Cc1cc(Nc2nn([C@@]3(CC#N)CCOC[C@H]3F)c3cc[nH]c(=O)c23)ccc1C(=O)N1CCOCC1 (single isomer, unassigned) [Example 5-257, 2-((3S,4S or 3R,4R)-3-fluoro-4-(3-(3-methyl-4-(morpholine-4-carbonyl)phenylamino)-4-oxo-4,5-dihydropyrazolo[4,3-c]pyridin-1-yl)-tetrahydro-2H-pyran-4-yl)acetonitrile]	3.17	2.08
Cc1cc(Nc2nn([C@]3(CC#N)CCOC[C@@H]3F)c3cc[nH]c(=O)c23)ccc1C(=O)N1CCOCC1 (single isomer, unassigned) [Example 5-258, 2-((3R,4R or 3S,4S)-3-fluoro-4-(3-((3-methyl-4-(morpholine-4-carbonyl)phenyl)amino)-4-oxo-4,5-dihydro-1H-pyrazolo[4,3-c]pyridin-1-yl)tetrahydro-2H-pyran-4-yl)acetonitrile]	0.08	0.07
Cc1cc(Nc2nn([C@@]3(CC#N)CCOC[C@H]3F)c3cc[nH]c(=O)c23)ccc1C(=O)N1CCSCC1 (single isomer, unassigned) [Example 5-261, 2-((3S,4S or 3R,4R)-3-fluoro-4-(3-(3-methyl-4-(thiomorpholine-4-carbonyl)phenylamino)-4-oxo-4,5-dihydropyrazolo[4,3-c]pyridin-1-yl)-tetrahydro-2H-pyran-4-yl)acetonitrile]	2.74	2.26
Cc1cc(Nc2nn([C@]3(CC#N)CCOC[C@@H]3F)c3cc[nH]c(=O)c23)ccc1C(=O)N1CCSCC1 (single isomer, unassigned) [Example 5-262, 2-((3R,4R or 3S,4S)-3-fluoro-4-(3-((3-methyl-4-(thiomorpholine-4-carbonyl)phenyl)amino)-4-oxo-4,5-dihydro-1H-pyrazolo[4,3-c]pyridin-1-yl)tetrahydro-2H-pyran-4-yl)acetonitrile]	0.08	0.09
N#CC[C@]1(n2nc(Nc3ccc([C@]4(C(F)(F)F)CCCCN4)cc3)c3c(=O)[nH]ccc32)CCOC[C@H]1F (single isomer, unassigned) [Example 5-263, 2-((3S,4S or 3R,4R)-3-fluoro-4-(4-oxo-3-((4-((S or R)-2-(trifluoromethyl)piperidin-2-yl)phenyl)amino)-4,5-dihydro-1H-pyrazolo[4,3-c]pyridin-1-yl)tetrahydro-2H-pyran-4-yl)acetonitrile]	0.77	0.48
N#CC[C@]1(n2nc(Nc3ccc([C@@]4(C(F)(F)F)CCCCN4)cc3)c3c(=O)[nH]ccc32)CCOC[C@H]1F (single isomer, unassigned) [Example 5-264, 2-((3S,4S or 3R,4R)-3-fluoro-4-(4-oxo-3-((4-((R or S)-2-(trifluoromethyl)piperidin-2-yl)phenyl)amino)-4,5-dihydro-1H-pyrazolo[4,3-c]pyridin-1-yl)tetrahydro-2H-pyran-4-yl)acetonitrile]	0.79	0.51
N#CC[C@@]1(n2nc(Nc3ccc([C@]4(C(F)(F)F)CCCCN4)cc3)c3c(=O)[nH]ccc32)CCOC[C@@H]1F (single isomer, unassigned) [Example 5-265, 2-((3R,4R or 3S,4S)-3-fluoro-4-(4-oxo-3-((4-((S or R)-2-(trifluoromethyl)piperidin-2-yl)phenyl)amino)-4,5-dihydro-1H-pyrazolo[4,3-c]pyridin-1-yl)tetrahydro-2H-pyran-4-yl)acetonitrile]	0.04	0.05
N#CC[C@@]1(n2nc(Nc3ccc([C@@]4(C(F)(F)F)CCCCN4)cc3)c3c(=O)[nH]ccc32)CCOC[C@@H]1F (single isomer, unassigned) [Example 5-266, 2-((3R,4R or 3S,4S)-3-fluoro-4-(4-oxo-3-((4-((R or S)-2-(trifluoromethyl)piperidin-2-yl)phenyl)amino)-4,5-dihydro-1H-pyrazolo[4,3-c]pyridin-1-yl)tetrahydro-2H-pyran-4-yl)acetonitrile]	0.04	0.05
CC(C)(C)N[C@H](c1ccc(Nc2nn([C@@]3(CC#N)CCOC[C@H]3F)c3cc[nH]c(=O)c23)cc1)C(F)(F)F (single isomer, unassigned) [Example 5-267, 2-((3S,4S or 3R,4R)-4-(3-((4-((R or S)-1-(tert-butylamino)-2,2,2-trifluoroethyl)phenyl)amino)-4-oxo-4,5-dihydro-1H-pyrazolo[4,3-c]pyridin-1-yl)-3-fluorotetrahydro-2H-pyran-4-yl)acetonitrile]	4.02	2.42
CC(C)(C)N[C@@H](c1ccc(Nc2nn([C@@]3(CC#N)CCOC[C@H]3F)c3cc[nH]c(=O)c23)cc1)C(F)(F)F (single isomer, unassigned) [Example 5-268, 2-((3S,4S or 3R,4R)-4-(3-((4-((S or R)-1-(tert-butylamino)-2,2,2-trifluoroethyl)phenyl)amino)-4-oxo-4,5-dihydro-1H-pyrazolo[4,3-c]pyridin-1-yl)-3-fluorotetrahydro-2H-pyran-4-yl)acetonitrile]	4.78	2.63

— patent publication US9957264B2 (Merck Sharp & Dohme Corp., priority 2013, dated 2018)
